# According to paper PMC3844181, “Studies of the Interaction between Isoimperatorin and Human Serum Albumin by Multispectroscopic Method: Identification of Possible Binding Site of the Compound Using Esterase Activity of the Protein” (The Scientific World Journal, 2013):
# Legend:
# [1] = target: T1, Human serum albumin (HSA) (Homo sapiens, UniProt P02768); assay: 4-nitrophenyl acetate esterase assay; format: biochemical; conditions: 15 μM HSA, 250 μM pNPA, 250 μM compound, site I
# T1 construct: gene ALB; mature serum albumin, 585 residues, monomer
# [2] = target: T1, Human serum albumin (HSA); assay: intrinsic Trp fluorescence quenching, modified Stern-Volmer plot; format: binding; conditions: 298 K, 50 mM phosphate pH 7.5, 3 μM HSA, excitation 295 nm; n = 0.862; site I; double-log
# Excerpt: intrinsic Trp fluorescence quenching, modified Stern-Volmer plot on Human serum albumin (HSA)
# [3] = target: T1, Human serum albumin (HSA); assay: ANS fluorescence titration, Scatchard plot; format: binding
# Excerpt: ANS fluorescence titration, Scatchard plot on Human serum albumin (HSA)
# T1 sequence (P02768 25-609): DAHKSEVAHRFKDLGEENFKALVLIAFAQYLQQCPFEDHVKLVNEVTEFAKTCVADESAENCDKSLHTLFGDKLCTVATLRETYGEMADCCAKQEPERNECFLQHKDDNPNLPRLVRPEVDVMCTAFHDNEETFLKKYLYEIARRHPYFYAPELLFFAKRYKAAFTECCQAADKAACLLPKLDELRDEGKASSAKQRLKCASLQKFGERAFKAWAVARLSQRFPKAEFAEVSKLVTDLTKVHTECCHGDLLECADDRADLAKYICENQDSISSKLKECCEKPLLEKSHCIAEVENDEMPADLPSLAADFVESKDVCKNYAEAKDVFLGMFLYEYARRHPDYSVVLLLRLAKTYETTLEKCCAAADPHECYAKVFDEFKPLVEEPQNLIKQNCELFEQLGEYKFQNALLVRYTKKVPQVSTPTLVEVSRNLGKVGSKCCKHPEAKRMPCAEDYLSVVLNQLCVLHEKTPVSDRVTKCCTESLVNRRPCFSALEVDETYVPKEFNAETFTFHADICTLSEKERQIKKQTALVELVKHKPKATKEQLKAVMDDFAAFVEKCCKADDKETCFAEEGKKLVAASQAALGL
structure (smiles),measurement,setting,value
COc1ccc2ccc(=O)oc2c1CC=C(C)C [osthole],inhibition of esterase activity,[1],"isoimperatorin, aspirin, warfarin, indomethacin, and osthole binding sites on the HSA molecule are the same"
"CC(C)=CCOc1c2ccoc2cc2oc(=O)ccc12 [isoimperatorin, 4-[(3-methyl-2-butenyl)oxy]-7H-furo [3,2-g] [1] benzopyran-7-one]",10^-5 × K b (M^-1),[2],(11.02 ± 0.10) × 10^5 M^-1
same,inhibition of esterase activity,[1]; competitive,warfarin and indomethacin (as site I marker) and isoimperatorin inhibited competitively the HSA-catalyzed hydrolysis
O=S(=O)(O)c1cccc2cccc(Nc3ccccc3)c12 [ANS],Kd,[3],900 ± 50 nM
CC(=O)Oc1ccccc1C(=O)O [aspirin],inhibition of esterase activity,[1],"isoimperatorin, aspirin, warfarin, indomethacin, and osthole binding sites on the HSA molecule are the same"
